Test results published in PubChem BioAssay AID1259407 (Chemical Carcinogenesis Research Information System (CCRIS), 2018).
The source made the active and inactive calls. No rule for the calls is given here.

Tested on: CCRIS mutagenicity, Ames/micronucleus/aberration tests
Assay: CCRIS mutagenicity studies
[1] = Test System: AMES SALMONELLA TYPHIMURIUM, Strain/Indicator: TA98, Metabolic Activation: NONE, Method: PREINCUBATION
[2] = Test System: AMES SALMONELLA TYPHIMURIUM, Strain/Indicator: TA98, Metabolic Activation: RAT, LIVER, S-9, AROCLOR 1254, Method: PREINCUBATION
[3] = Test System: AMES SALMONELLA TYPHIMURIUM, Strain/Indicator: TA100, Metabolic Activation: NONE, Method: PREINCUBATION
[4] = Test System: AMES SALMONELLA TYPHIMURIUM, Strain/Indicator: TA100, Metabolic Activation: RAT, LIVER, S-9, AROCLOR 1254, Method: PREINCUBATION
[5] = Test System: AMES SALMONELLA TYPHIMURIUM, Strain/Indicator: TA98, Metabolic Activation: NONE, Method: STANDARD PLATE
[6] = Test System: AMES SALMONELLA TYPHIMURIUM, Strain/Indicator: TA100, Metabolic Activation: NONE, Method: STANDARD PLATE

Nc1c(Br)cc(Br)c2c1C(=O)c1ccccc1C2=O
mutagenic call (End Point: IN VITRO CHROMOSOMAL ABERRATIONS, Test System: CHO-LB CELLS, Metabolic Activation: NONE): inactive; negative
mutagenic call (End Point: IN VITRO CHROMOSOMAL ABERRATIONS, Test System: CHO-LB CELLS, Metabolic Activation: RAT, LIVER, S-9, AROCLOR 1254): inactive; negative
mutagenic call (Test System: AMES SALMONELLA TYPHIMURIUM, Strain/Indicator: TA98, Metabolic Activation: HAMSTER, LIVER, S-9, AROCLOR 1254 (10%), Method: PREINCUBATION): inactive; negative
mutagenic call (Test System: AMES SALMONELLA TYPHIMURIUM, Strain/Indicator: TA98, Metabolic Activation: HAMSTER, LIVER, S-9, AROCLOR 1254, Method: PREINCUBATION): inactive; negative
mutagenic call [1]: active; positive
mutagenic call (Test System: AMES SALMONELLA TYPHIMURIUM, Strain/Indicator: TA98, Metabolic Activation: RAT, LIVER, S-9, AROCLOR 1254 (10%), Method: PREINCUBATION): inactive; negative
mutagenic call [2]: inactive; negative
mutagenic call (Test System: AMES SALMONELLA TYPHIMURIUM, Strain/Indicator: TA100, Metabolic Activation: HAMSTER, LIVER, S-9, AROCLOR 1254, Method: PREINCUBATION): inactive; negative
mutagenic call [3]: inactive; negative
mutagenic call [4]: inactive; negative
mutagenic call (Test System: AMES SALMONELLA TYPHIMURIUM, Strain/Indicator: TA1535, Metabolic Activation: HAMSTER, LIVER, S-9, AROCLOR 1254 (10%), Method: PREINCUBATION): inactive; negative
mutagenic call (Test System: AMES SALMONELLA TYPHIMURIUM, Strain/Indicator: TA1535, Metabolic Activation: HAMSTER, LIVER, S-9, AROCLOR 1254, Method: PREINCUBATION): inactive; negative
mutagenic call (Test System: AMES SALMONELLA TYPHIMURIUM, Strain/Indicator: TA1535, Metabolic Activation: NONE, Method: PREINCUBATION): inactive; negative
mutagenic call (Test System: AMES SALMONELLA TYPHIMURIUM, Strain/Indicator: TA1535, Metabolic Activation: RAT, LIVER, S-9, AROCLOR 1254 (10%), Method: PREINCUBATION): inactive; negative
mutagenic call (Test System: AMES SALMONELLA TYPHIMURIUM, Strain/Indicator: TA1535, Metabolic Activation: RAT, LIVER, S-9, AROCLOR 1254, Method: PREINCUBATION): inactive; negative
mutagenic call (Test System: AMES SALMONELLA TYPHIMURIUM, Strain/Indicator: TA1537, Metabolic Activation: HAMSTER, LIVER, S-9, AROCLOR 1254, Method: PREINCUBATION): inactive; negative
mutagenic call (Test System: AMES SALMONELLA TYPHIMURIUM, Strain/Indicator: TA1537, Metabolic Activation: NONE, Method: PREINCUBATION): active; positive
mutagenic call (Test System: AMES SALMONELLA TYPHIMURIUM, Strain/Indicator: TA1537, Metabolic Activation: RAT, LIVER, S-9, AROCLOR 1254, Method: PREINCUBATION): active; positive

O=C1OC(O)C(C(Br)Br)=C1Cl (configuration not stated)
mutagenic call [5]: active; positive
mutagenic call (Test System: AMES SALMONELLA TYPHIMURIUM, Strain/Indicator: TA98, Metabolic Activation: RAT LIVER S-9, AROCLOR 1254, Method: STANDARD PLATE): inactive; negative
mutagenic call [6]: active; positive
mutagenic call (Test System: AMES SALMONELLA TYPHIMURIUM, Strain/Indicator: TA100, Metabolic Activation: RAT LIVER S-9, AROCLOR 1254, Method: STANDARD PLATE): inactive; negative

Cn1c(NS(=O)(=O)O)nc2c3nc(CO)cnc3ccc21
mutagenic call [1]: inactive; negative
mutagenic call [2]: inactive; negative

O=[N+]([O-])N(c1ccccn1)S(=O)(=O)c1ccccc1
mutagenic call [1]: inactive; negative
mutagenic call [2]: inactive; negative
mutagenic call [3]: inactive; negative
mutagenic call [4]: inactive; negative

Oc1c(O)c(Cl)c(Cl)c(Cl)c1Cl
mutagenic call (Test System: CHINESE HAMSTER V-79, Strain/Indicator: V-79/6-THIOGUANINE (HGPRT), Metabolic Activation: NONE, Method: SUSPENSION/PLATE): inactive; negative
mutagenic call (Test System: CHINESE HAMSTER V-79, Strain/Indicator: V-79/6-THIOGUANINE, Metabolic Activation: NONE, Method: STANDARD PLATE): inactive; negative
mutagenic call (Test System: CHINESE HAMSTER V-79, Strain/Indicator: V-79/6-THIOGUANINE, Metabolic Activation: PRIMARY RAT HEPATOCYTES, Method: STANDARD PLATE): inactive; negative
mutagenic call (Test System: CHINESE HAMSTER V-79, Strain/Indicator: V-79/OUABAIN, Metabolic Activation: NONE, Method: SUSPENSION/PLATE): inactive; negative

CN(C)N=Nc1ccc([N+](=O)[O-])cc1
mutagenic call (Test System: AMES SALMONELLA TYPHIMURIUM, Strain/Indicator: TA92, Metabolic Activation: MOUSE, LIVER, S-9, POLYCHLORINATED BIPHENYLS, Method: PREINCUBATION): active; positive
mutagenic call (Test System: AMES SALMONELLA TYPHIMURIUM, Strain/Indicator: TA92, Metabolic Activation: MOUSE, LIVER, S-9, POLYCHLORINATED BIPHENYLS, Method: STANDARD PLATE): active; positive
mutagenic call (Test System: AMES SALMONELLA TYPHIMURIUM, Strain/Indicator: TA92, Metabolic Activation: NONE, Method: STANDARD PLATE): active; positive
mutagenic call (Test System: AMES SALMONELLA TYPHIMURIUM, Strain/Indicator: TA97, Metabolic Activation: MOUSE, LIVER, S-9, POLYCHLORINATED BIPHENYLS, Method: PREINCUBATION): active; positive
mutagenic call (Test System: AMES SALMONELLA TYPHIMURIUM, Strain/Indicator: TA97, Metabolic Activation: MOUSE, LIVER, S-9, POLYCHLORINATED BIPHENYLS, Method: STANDARD PLATE): active; positive
mutagenic call (Test System: AMES SALMONELLA TYPHIMURIUM, Strain/Indicator: TA97, Metabolic Activation: NONE, Method: STANDARD PLATE): active; positive
mutagenic call (Test System: AMES SALMONELLA TYPHIMURIUM, Strain/Indicator: TA98, Metabolic Activation: MOUSE, LIVER, S-9, POLYCHLORINATED BIPHENYLS, Method: PREINCUBATION): active; positive
mutagenic call (Test System: AMES SALMONELLA TYPHIMURIUM, Strain/Indicator: TA98, Metabolic Activation: MOUSE, LIVER, S-9, POLYCHLORINATED BIPHENYLS, Method: STANDARD PLATE): active; positive
mutagenic call [5]: active; positive
mutagenic call (Test System: AMES SALMONELLA TYPHIMURIUM, Strain/Indicator: TA100, Metabolic Activation: MOUSE, LIVER, S-9, POLYCHLORINATED BIPHENYLS, Method: PREINCUBATION): active; positive
mutagenic call (Test System: AMES SALMONELLA TYPHIMURIUM, Strain/Indicator: TA100, Metabolic Activation: MOUSE, LIVER, S-9, POLYCHLORINATED BIPHENYLS, Method: STANDARD PLATE): active; positive
mutagenic call [6]: active; positive
mutagenic call (Test System: AMES SALMONELLA TYPHIMURIUM, Strain/Indicator: TA1535, Metabolic Activation: MOUSE, LIVER, S-9, POLYCHLORINATED BIPHENYLS, Method: PREINCUBATION): active; positive
mutagenic call (Test System: AMES SALMONELLA TYPHIMURIUM, Strain/Indicator: TA1535, Metabolic Activation: MOUSE, LIVER, S-9, POLYCHLORINATED BIPHENYLS, Method: STANDARD PLATE): active; positive
mutagenic call (Test System: AMES SALMONELLA TYPHIMURIUM, Strain/Indicator: TA1535, Metabolic Activation: NONE, Method: STANDARD PLATE): active; positive
mutagenic call (Test System: AMES SALMONELLA TYPHIMURIUM, Strain/Indicator: TA1537, Metabolic Activation: MOUSE, LIVER, S-9, POLYCHLORINATED BIPHENYLS, Method: PREINCUBATION): active; positive
mutagenic call (Test System: AMES SALMONELLA TYPHIMURIUM, Strain/Indicator: TA1537, Metabolic Activation: MOUSE, LIVER, S-9, POLYCHLORINATED BIPHENYLS, Method: STANDARD PLATE): active; positive
mutagenic call (Test System: AMES SALMONELLA TYPHIMURIUM, Strain/Indicator: TA1537, Metabolic Activation: NONE, Method: STANDARD PLATE): active; positive
mutagenic call (Test System: AMES SALMONELLA TYPHIMURIUM, Strain/Indicator: TA1538, Metabolic Activation: MOUSE, LIVER, S-9, POLYCHLORINATED BIPHENYLS, Method: PREINCUBATION): active; positive
mutagenic call (Test System: AMES SALMONELLA TYPHIMURIUM, Strain/Indicator: TA1538, Metabolic Activation: MOUSE, LIVER, S-9, POLYCHLORINATED BIPHENYLS, Method: STANDARD PLATE): active; positive
mutagenic call (Test System: AMES SALMONELLA TYPHIMURIUM, Strain/Indicator: TA1538, Metabolic Activation: NONE, Method: STANDARD PLATE): active; positive

[N-]=[N+]=NC[C@H]1O[C@H](O)[C@H](O)[C@H](O)[C@@H]1O
mutagenic call [5]: inactive; negative
mutagenic call [6]: active; positive

CCCN(CC(C)O)N=O (configuration not stated)
mutagenic call (Test System: CHINESE HAMSTER V-79, Strain/Indicator: V-79/OUABAIN, Metabolic Activation: HAMSTER, HEPATOCYTES, Method: CELL-MEDIATED): active; positive

C=C1C[C@@]23CC[C@H]4[C@@](C)(CCC[C@@]4(C)C(=O)O)[C@@H]2CC[C@@H]1C3
mutagenic call (Test System: AMES SALMONELLA TYPHIMURIUM, Strain/Indicator: TM677, Metabolic Activation: RAT, LIVER, S-9, AROCLOR 1254, Method: PREINCUBATION): inactive; negative
